Laboratory results as given in US9938279B2, “Method for treating disease or condition susceptible to amelioration by AMPK activators and compounds of formula which are useful to activate AMP-activated protein kinase (AMPK)” (ENERGENESIS BIOMEDICAL CO., LTD, priority 2013, dated 2018).

Columns and labels:
muscle cell C2C12 = test: Glucose uptake in vitro (fluorescent glucose analog 2-NBDG); type: cell-based, mouse; conditions: 30 min treatment, mean±SEM of three experiments
Procedure: Effects of representative compounds on glucose uptake were analyzed in muscle cell C2C12 by using fluorescent glucose analog (2-NBDG, Molecular Probes). C2C12 were treated with selected novel AMPK activator for 30 min at 37° C. then exposed to 500 μM of fluorescent glucose analog. After 5 min incubation at room temperature, cells were washed three times with Kreb-Hepes buffered solution and fix in 70% alcohol. The fluorescence of glucose analog in cells was detected using a Fluorescence Microplate Reader System at 480-nm excitation and 530-nm emission wavelength.
Data are presented as the mean±SEM of three independent experiments.

AMPK [1] = test: AMPK activation assay (western blot phospho-AMPK Thr172) in 3T3-L1; type: cell-based, mouse; conditions: 3T3-L1 cells, 30 min treatment
Summary of the method: (§1)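 Mouse C2C12, mouse 3T3-L1 and human Hep G2 cells in high-glucose DMEM/10% FBS were treated with compounds for 30 min, 24 h after plating. Lysates were western-blotted for phospho-AMPK (Thr172) and total AMPK, ECL-detected, and bands quantified by densitometry.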

AMPK [2] = test: AMPK activation assay (western blot phospho-AMPK Thr172) in Hep G2; type: cell-based, human; conditions: Hep G2 cells, 30 min treatment
Summary of the method: as §1

AMPK [3] = test: AMPK activation assay (western blot phospho-AMPK Thr172) in C2C12; type: cell-based, mouse; conditions: C2C12 cells, 30 min treatment
Summary of the method: as §1

## Oc1ncnc2nc[nH]c12 [6-hydroxypurine]
Muscle cell C2C12; C2C12, 1 microM
  Glucose uptake (% to control): 109 ± 2.2 % to control
Muscle cell C2C12; C2C12, 10 microM
  Glucose uptake (% to control): 242 ± 23.7 % to control
Muscle cell C2C12; C2C12, 100 microM
  Glucose uptake (% to control): 289 ± 21.4 % to control
Muscle cell C2C12; C2C12, 600 microM
  Glucose uptake (% to control): 318 ± 21.2 % to control
AMPK [1]; 1 microM
  AMPK activation (% to control) 3T3-L1: 118 % to control
AMPK [1]; 10 microM
  AMPK activation (% to control) 3T3-L1: 155 % to control
AMPK [1]; 100 microM
  AMPK activation (% to control) 3T3-L1: 198 % to control
AMPK [1]; 200 microM
  AMPK activation (% to control) 3T3-L1: 325 % to control
AMPK [2]; 1 microM
  AMPK activation (% to control) Hep G2: 114 % to control
AMPK [2]; 10 microM
  AMPK activation (% to control) Hep G2: 146 % to control
AMPK [2]; 100 microM
  AMPK activation (% to control) Hep G2: 165 % to control
AMPK [2]; 200 microM
  AMPK activation (% to control) Hep G2: 330 % to control
AMPK [3]; 1 microM
  AMPK activation (% to control) C2C12: 120 % to control
AMPK [3]; 10 microM
  AMPK activation (% to control) C2C12: 148 % to control
AMPK [3]; 100 microM
  AMPK activation (% to control) C2C12: 233 % to control
AMPK [3]; 200 microM
  AMPK activation (% to control) C2C12: 341 % to control

## NC(=O)c1ncn([C@@H]2O[C@H](CO)[C@@H](O)[C@H]2O)c1N [AICAR, 5-amino-1-β-D-ribofuranosyl-imidazole-4-carboxamide, reference compound]
Muscle cell C2C12; C2C12, 1200 microM
  Glucose uptake (% to control): 264 ± 19.2 % to control
AMPK [1]; 1200 microM
  AMPK activation (% to control) 3T3-L1: 340 % to control
AMPK [2]; 1200 microM
  AMPK activation (% to control) Hep G2: 319 % to control
AMPK [3]; 1200 microM
  AMPK activation (% to control) C2C12: 335 % to control

## Cc1c[nH]c(=O)[nH]c1=O [Thymine, thymine]
Muscle cell C2C12; C2C12, 1 microM
  Glucose uptake (% to control): 110 ± 3.2 % to control
Muscle cell C2C12; C2C12, 10 microM
  Glucose uptake (% to control): 167 ± 15.1 % to control
Muscle cell C2C12; C2C12, 100 microM
  Glucose uptake (% to control): 215 ± 18.2 % to control
Muscle cell C2C12; C2C12, 600 microM
  Glucose uptake (% to control): 283 ± 22.3 % to control
AMPK [1]; 1 microM
  AMPK activation (% to control) 3T3-L1: 109 % to control
AMPK [1]; 10 microM
  AMPK activation (% to control) 3T3-L1: 129 % to control
AMPK [1]; 100 microM
  AMPK activation (% to control) 3T3-L1: 235 % to control
AMPK [1]; 200 microM
  AMPK activation (% to control) 3T3-L1: 318 % to control
AMPK [2]; 1 microM
  AMPK activation (% to control) Hep G2: 110 % to control
AMPK [2]; 10 microM
  AMPK activation (% to control) Hep G2: 113 % to control
AMPK [2]; 100 microM
  AMPK activation (% to control) Hep G2: 218 % to control
AMPK [2]; 200 microM
  AMPK activation (% to control) Hep G2: 303 % to control
AMPK [3]; 1 microM
  AMPK activation (% to control) C2C12: 117 % to control
AMPK [3]; 10 microM
  AMPK activation (% to control) C2C12: 147 % to control
AMPK [3]; 100 microM
  AMPK activation (% to control) C2C12: 266 % to control
AMPK [3]; 200 microM
  AMPK activation (% to control) C2C12: 354 % to control
